Test results reported in publication PMC9919579 (Molecules, 2023).

Target: T1, vaccinia virus TOP1 (vaccinia DNA Topoisomerase I) (Vaccinia virus WR, UniProt P68698)
T1 construct: gene OPG111; TOP1 described as 314 amino acids; amine-coupled to GLH chip
Test: biochemical
Format: binding

## CC1COc2c(N3CCN(C)CC3)c(F)cc3c(=O)c(C(=O)O)cn1c23 (stereo not shown) [Ofloxacin]
  Kd: 5.46 µM

## C[C@@H]1O[C@@H](Oc2c(-c3cc(O)c(O)c(O)c3)oc3cc(O)cc(O)c3c2=O)[C@H](O)[C@H](O)[C@H]1O [Myricitrin]
  Kd: 3.54 µM

## C[C@@H]1O[C@@H](Oc2c(-c3ccc(O)c(O)c3)oc3cc(O)cc(O)c3c2=O)[C@H](O)[C@H](O)[C@H]1O [Quercitrin]
  Kd: 4.77 µM

## O=C(/C=C/c1ccc(O)c(O)c1)O[C@H](Cc1ccc(O)c(O)c1)C(=O)O [Rosmarinic acid]
  Kd: 2.16 µM
